Measurements published in the supplement of paper PMC12463676, “Small-molecule dissolution of stress granules by redox modulation benefits ALS models” (Nature Chemical Biology, 2025).

What was measured:
lipoamide = compound: NC(=O)CCCCC1CCSS1 [lipoamide]; test: thermal stability z-score vs DMSO; higher = more thermally stabilized by treatment; settings: HeLa, lipoamide concentration 100 µM
Procedure: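 Cellular thermal proteome profiling in HeLa cells. Cells were treated with 100 µM lipoamide for 1 h, with or without 1 mM arsenate for a further 1 h, then heated to ten temperatures (37-66.3 °C), and soluble protein was quantified by TMT mass spectrometry relative to 0.1% DMSO controls. The thermal stability score (sum of log2 fold changes minus the abundance score) was transformed to a z-score; mean of n = 3 experiments.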

potassium arsenate = compound: O=[As]([O-])(O)O.[K+] [potassium arsenate]; test: as above; settings: HeLa; arsenate concentration 1 mM
Procedure: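 Cellular thermal proteome profiling in HeLa cells treated with 1 mM arsenate for 1 h (DMSO pretreatment), heated to ten temperatures (37-66.3 °C). Soluble protein was quantified by TMT mass spectrometry relative to DMSO controls; the thermal stability score was transformed to a z-score; mean of n = 3 experiments.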

[1] = arsenate co-treatment: 1 mM arsenate 1 h
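Further: each temperature applied for 3 min, abundance score taken as mean log2 fold change at the two lowest temperatures, z-score obtained by mean subtraction and division by SD.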

Sequence of UniProt Q08AF3 (Q08AF3 whole entry): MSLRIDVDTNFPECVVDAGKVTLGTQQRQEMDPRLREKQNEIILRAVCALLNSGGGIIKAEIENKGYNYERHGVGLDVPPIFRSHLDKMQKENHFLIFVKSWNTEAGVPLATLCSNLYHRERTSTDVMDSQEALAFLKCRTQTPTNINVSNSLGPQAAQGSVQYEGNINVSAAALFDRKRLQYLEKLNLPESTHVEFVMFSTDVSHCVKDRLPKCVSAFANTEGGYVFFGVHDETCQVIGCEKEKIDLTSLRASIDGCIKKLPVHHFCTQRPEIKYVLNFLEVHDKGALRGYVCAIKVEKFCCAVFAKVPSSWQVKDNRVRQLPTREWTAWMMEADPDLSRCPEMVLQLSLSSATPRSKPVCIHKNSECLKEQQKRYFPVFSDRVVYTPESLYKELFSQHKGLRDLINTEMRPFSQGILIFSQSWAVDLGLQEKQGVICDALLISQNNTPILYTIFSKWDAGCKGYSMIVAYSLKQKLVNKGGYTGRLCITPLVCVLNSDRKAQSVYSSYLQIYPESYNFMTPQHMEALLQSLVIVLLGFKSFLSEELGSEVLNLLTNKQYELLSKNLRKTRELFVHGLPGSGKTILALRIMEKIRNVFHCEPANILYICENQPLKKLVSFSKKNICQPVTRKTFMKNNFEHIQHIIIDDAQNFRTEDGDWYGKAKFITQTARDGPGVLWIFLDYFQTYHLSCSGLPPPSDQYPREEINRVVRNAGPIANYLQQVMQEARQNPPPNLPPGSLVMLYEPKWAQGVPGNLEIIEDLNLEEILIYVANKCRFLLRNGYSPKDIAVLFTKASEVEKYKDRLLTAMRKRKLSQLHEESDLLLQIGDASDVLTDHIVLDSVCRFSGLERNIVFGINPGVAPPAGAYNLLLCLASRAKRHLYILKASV
Sequence of UniProt Q6PCB5 (Q6PCB5 whole entry): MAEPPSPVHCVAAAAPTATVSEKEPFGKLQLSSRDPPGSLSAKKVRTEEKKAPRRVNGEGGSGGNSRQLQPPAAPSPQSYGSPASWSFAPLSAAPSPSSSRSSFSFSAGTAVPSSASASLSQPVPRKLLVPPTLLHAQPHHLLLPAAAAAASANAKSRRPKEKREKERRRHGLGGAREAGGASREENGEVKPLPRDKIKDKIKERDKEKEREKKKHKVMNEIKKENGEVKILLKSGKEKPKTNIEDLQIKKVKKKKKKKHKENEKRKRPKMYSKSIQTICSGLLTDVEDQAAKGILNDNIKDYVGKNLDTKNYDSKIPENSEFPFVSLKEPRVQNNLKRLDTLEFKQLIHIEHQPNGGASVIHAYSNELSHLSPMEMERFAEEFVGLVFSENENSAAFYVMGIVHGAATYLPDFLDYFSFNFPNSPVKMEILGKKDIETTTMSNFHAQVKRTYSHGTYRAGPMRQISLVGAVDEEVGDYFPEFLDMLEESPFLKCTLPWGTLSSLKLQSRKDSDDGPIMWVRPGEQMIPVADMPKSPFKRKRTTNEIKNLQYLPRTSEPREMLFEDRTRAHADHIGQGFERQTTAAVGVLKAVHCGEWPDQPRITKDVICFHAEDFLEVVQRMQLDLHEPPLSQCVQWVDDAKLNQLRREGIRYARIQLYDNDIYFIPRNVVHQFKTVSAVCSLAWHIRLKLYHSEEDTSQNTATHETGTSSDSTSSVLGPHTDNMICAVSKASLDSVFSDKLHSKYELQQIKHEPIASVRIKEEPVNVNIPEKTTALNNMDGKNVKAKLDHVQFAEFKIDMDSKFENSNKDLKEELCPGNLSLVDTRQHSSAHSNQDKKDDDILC
Sequence of UniProt O75970 (O75970 whole entry): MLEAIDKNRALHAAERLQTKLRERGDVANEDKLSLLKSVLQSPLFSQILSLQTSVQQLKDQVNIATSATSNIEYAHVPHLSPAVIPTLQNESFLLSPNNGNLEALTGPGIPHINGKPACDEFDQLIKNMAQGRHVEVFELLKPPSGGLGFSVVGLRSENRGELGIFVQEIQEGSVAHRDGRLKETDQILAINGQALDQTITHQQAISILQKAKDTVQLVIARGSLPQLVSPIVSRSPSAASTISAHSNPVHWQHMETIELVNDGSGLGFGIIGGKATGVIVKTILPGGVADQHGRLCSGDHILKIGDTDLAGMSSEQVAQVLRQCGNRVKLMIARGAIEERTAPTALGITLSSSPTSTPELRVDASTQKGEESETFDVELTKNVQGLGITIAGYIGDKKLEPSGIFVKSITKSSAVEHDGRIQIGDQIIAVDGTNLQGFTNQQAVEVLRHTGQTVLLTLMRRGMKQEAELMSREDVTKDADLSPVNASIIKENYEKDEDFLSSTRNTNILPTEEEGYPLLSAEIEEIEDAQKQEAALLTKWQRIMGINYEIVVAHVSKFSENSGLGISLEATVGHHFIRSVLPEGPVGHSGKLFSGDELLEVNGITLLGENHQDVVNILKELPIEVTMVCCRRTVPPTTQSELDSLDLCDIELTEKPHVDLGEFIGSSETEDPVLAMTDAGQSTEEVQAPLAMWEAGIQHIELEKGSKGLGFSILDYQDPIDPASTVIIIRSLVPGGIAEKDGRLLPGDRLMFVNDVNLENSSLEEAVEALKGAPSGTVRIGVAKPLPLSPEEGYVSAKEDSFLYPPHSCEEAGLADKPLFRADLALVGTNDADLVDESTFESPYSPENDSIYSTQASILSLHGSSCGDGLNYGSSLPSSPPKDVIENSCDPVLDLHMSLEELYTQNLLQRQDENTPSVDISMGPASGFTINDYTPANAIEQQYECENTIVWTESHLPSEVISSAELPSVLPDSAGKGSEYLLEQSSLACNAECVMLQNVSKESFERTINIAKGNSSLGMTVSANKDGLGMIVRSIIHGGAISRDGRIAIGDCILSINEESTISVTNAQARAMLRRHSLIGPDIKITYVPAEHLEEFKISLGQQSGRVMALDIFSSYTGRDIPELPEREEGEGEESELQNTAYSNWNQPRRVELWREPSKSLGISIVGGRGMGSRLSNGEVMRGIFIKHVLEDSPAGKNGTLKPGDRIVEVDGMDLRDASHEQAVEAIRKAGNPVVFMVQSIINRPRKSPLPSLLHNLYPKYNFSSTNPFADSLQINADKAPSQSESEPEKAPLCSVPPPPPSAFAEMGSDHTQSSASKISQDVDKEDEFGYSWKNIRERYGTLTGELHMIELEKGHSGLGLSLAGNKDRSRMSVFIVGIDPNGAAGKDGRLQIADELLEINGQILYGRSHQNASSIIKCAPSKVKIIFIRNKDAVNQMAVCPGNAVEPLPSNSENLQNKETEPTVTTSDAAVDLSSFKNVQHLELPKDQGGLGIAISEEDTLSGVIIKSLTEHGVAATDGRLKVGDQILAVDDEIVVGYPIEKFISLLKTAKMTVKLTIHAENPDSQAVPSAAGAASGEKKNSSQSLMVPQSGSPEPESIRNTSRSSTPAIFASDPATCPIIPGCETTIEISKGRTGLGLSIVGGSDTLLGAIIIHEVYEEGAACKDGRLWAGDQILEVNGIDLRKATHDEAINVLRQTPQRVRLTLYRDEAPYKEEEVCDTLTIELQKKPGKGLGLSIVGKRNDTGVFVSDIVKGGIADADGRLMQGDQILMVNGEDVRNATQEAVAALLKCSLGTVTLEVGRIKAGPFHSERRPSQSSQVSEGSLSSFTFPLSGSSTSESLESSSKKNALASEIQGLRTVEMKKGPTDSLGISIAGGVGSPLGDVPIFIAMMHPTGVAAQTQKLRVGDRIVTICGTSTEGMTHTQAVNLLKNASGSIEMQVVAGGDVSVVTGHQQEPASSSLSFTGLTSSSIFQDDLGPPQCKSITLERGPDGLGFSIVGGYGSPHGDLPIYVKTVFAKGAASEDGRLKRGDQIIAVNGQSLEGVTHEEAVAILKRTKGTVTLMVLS
Sequence of UniProt Q9UJG1 (Q9UJG1 whole entry): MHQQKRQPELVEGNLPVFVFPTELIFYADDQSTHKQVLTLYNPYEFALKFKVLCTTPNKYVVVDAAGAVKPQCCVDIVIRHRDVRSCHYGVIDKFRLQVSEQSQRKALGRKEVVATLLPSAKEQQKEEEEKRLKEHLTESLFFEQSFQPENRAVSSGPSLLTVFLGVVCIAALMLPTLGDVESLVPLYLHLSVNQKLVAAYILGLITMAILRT
Sequence of UniProt Q99523 (Q99523 whole entry): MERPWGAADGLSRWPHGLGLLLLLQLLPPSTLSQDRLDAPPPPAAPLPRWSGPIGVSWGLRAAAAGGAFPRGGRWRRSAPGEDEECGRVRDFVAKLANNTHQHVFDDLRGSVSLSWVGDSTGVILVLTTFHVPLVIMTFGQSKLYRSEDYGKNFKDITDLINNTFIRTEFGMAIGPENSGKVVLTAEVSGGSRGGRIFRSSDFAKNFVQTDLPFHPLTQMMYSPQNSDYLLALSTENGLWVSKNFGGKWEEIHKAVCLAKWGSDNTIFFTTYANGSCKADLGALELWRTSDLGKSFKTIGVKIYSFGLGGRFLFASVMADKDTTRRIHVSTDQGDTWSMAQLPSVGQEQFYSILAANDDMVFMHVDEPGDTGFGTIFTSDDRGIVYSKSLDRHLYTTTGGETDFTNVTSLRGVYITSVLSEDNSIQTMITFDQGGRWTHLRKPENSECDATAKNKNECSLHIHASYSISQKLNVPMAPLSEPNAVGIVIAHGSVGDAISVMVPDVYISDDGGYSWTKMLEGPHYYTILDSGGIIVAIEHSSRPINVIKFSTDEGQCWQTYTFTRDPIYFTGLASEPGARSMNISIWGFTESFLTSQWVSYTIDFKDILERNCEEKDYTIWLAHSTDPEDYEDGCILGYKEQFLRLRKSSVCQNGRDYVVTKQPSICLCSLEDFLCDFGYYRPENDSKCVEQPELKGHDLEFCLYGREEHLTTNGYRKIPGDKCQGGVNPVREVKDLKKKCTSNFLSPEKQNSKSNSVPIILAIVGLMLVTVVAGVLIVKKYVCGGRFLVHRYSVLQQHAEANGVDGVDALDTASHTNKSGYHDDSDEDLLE
Sequence of UniProt P16949 (P16949 whole entry): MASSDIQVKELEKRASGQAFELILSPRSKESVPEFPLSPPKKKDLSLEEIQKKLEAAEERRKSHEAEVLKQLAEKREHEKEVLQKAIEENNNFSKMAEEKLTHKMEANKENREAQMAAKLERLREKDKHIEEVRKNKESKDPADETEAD

Row | Target | thermal stability z-score (lipoamide; [1]) | thermal stability z-score (lipoamide; arsenate co-treatment: none) | thermal stability z-score (potassium arsenate)
1 | CCT5 (UniProt P48643) | -0.0313 | -0.053 | 0.118
2 | SLC37A4 (UniProt O43826) | 1.26 | -0.205 | -0.212
3 | SORT1 (UniProt Q99523) | -0.0906 | 0.945 | 1.41
4 | VKORC1L1 (UniProt Q8N0U8) | 0.529 | -0.318 | 0.544
5 | RGS10 (UniProt O43665) | 0.748 | 0.902 | 0.0472
6 | SLFN5 (UniProt Q08AF3) | -0.884 | -1.21 | -0.568
7 | NDUFA7 (UniProt O95182) | 0.276 | 0.141 | 0.128
8 | DDX56 (UniProt Q9NY93) | -0.847 | -0.217 | 0.917
9 | ARFGEF2 (UniProt Q9Y6D5) | -0.376 | -0.0733 | 0.0926
10 | MPDZ (UniProt O75970) | -0.25 | -0.0819 | 0.0169
11 | BAG4 (UniProt O95429) | 0.25 | 0.752 | 0.76
12 | TRMT5 (UniProt Q32P41) | -0.124 | 0.0028 | -0.112
13 | CYP51A1 (UniProt Q16850) | -0.665 | -0.0953 | 0.803
14 | FAM134A (UniProt Q8NC44) | 0.119 | -0.141 | -0.162
15 | MOSPD1 (UniProt Q9UJG1) | -0.167 | -0.25 | -0.354
16 | TRIM38 (UniProt O00635) | -0.0725 | -0.0917 | -0.447
17 | CDR2 (UniProt Q01850) | 0.134 | 0.141 | 0.139
18 | ARPC1B (UniProt O15143) | -0.0473 | -0.175 | -0.0161
19 | DNAJA3 (UniProt Q96EY1) | -1.12 | -0.564 | 0.258
20 | COPS5 (UniProt Q92905) | 0.384 | -0.0535 | 0.276
21 | LTA4H (UniProt P09960) | 0.357 | 0.32 | -0.164
22 | DDX18 (UniProt Q9NVP1) | 0.301 | 0.0191 | -1.26
23 | WAC (UniProt Q9BTA9) | 0.192 | 0.112 | 0.126
24 | SLC44A2 (UniProt Q8IWA5) | -0.0733 | -0.171 | -0.517
25 | RSBN1L (UniProt Q6PCB5) | -0.0324 | -0.225 | 0.113
26 | TSG101 (UniProt Q99816) | 0.29 | 0.0321 | -0.0661
27 | STMN1 (UniProt P16949) | 1.14 | 1.18 | 0.78
28 | SEC23B (UniProt Q15437) | 1.19 | 0.766 | 0.645
29 | BUB1 (UniProt O43683) | -0.0469 | 0.0303 | 0.029
30 | SLC38A7 (UniProt Q9NVC3) | -0.543 | -0.964 | -0.442
